Measurements as given in US20250074911A1, “MACROCYCLIC BTK INHIBITORS” (Crossfire Oncology Holding B.V., priority 2021, published 2025).
Like-named read-outs stand apart in the source and are kept apart here.

What was measured:
REC-1 T474I cell lines = assay: Cell proliferation assay REC-1 BTK T474I knock-in cells (ATPlite, 72 hours); assay type: cell-based; conditions: 72 hours, read-out: IC50 REC-1 T474I
Summary of the method: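 REC-1 cells carrying CRISPR knock-in mutant BTK, single-cell cloned and sequence-confirmed, were exposed to compound for 72 h and read by ATPlite luminescence. Percentage growth was calculated against the signal at the start of incubation and against untreated 0.3% DMSO wells as maximum growth.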

[1] = tested on: wt-TMD8 diffuse large B-cell lymphoma cells; assay: Cell proliferation assay wt-TMD8 (ATPlite, 120 hours); assay type: cell-based; conditions: wt-TMD8 cells, 120 hours, ATPlite, read-out: IC50 wt-TMD8
Method: Cell proliferation assay wt-TMD8 diffuse large B-cell lymphoma cells were purchased from Tokyo Medical and Dental University and cultured in RPMI-1640 cell culture medium (cat. no. 61870036, Life Technologies), supplemented with 10% (v/v) heat-inactivated fetal bovine calf serum and 1% penicillin/[…]. 1600 cells per well (in 45 μl) were seeded in a white 384-well culture plate (cat. no. 781080, Greiner Bio-One) and allowed to rest for at least 5 hours at 37° C., 95% humidity, and 5% CO2. 5 μl compound solution was added to the cells and incubation was continued for 120 hours (5 days), followed by addition of 24 μl ATPlite 1Step™ (PerkinElmer, Groningen, The Netherlands) solution was added to each well. Luminescence was recorded on an Envision multimode reader. The cell signal at the start of incubation was recorded separately in order to distinguish between cell population growth and cell death. In addition, maximum growth was determined by incubation of a duplicate without compound in the presence of 0.3% DMSO. Percentage growth was used as the main y-axis signal.

[2] = tested on: wt-REC-1 mantle cell lymphoma cells; assay: Cell proliferation assay wt-REC-1 (ATPlite, 72 hours); assay type: cell-based; conditions: read-out: IC50 wt-REC-1
Summary of the method: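 Luminescent viability read over 72 h, start-of-incubation signal recorded separately to separate growth from cell death. Percentage growth referenced to compound-free 0.3% DMSO wells; IC50 from 4-parameter logistic fit.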

[3] = biological target: full-length BTK C481S enzyme (Homo sapiens (Human), UniProt Q06187, C481S); assay: Biochemical kinase assay BTK C481S (IMAP)
Summary of the method: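 Full-length BTK C481S (1.2 nM) was pre-incubated with compound for 1 h at room temperature in the dark, then reacted with fluorescein-labelled MBP-derived peptide (50 nM) and ATP (7 μM) for 2 h. Reactions were quenched with IMAP binding solution, and IC50 values were derived from fluorescence polarization.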

[4] = biological target: full-length wt-BTK enzyme (Homo sapiens (Human), UniProt Q06187); assay: Biochemical kinase assay wt-BTK (IMAP)
Summary of the method: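 IMAP fluorescence polarization assay: 1.2 nM enzyme pre-incubated 1 h with compound at room temperature, then 50 nM fluorescein-labeled MBP-derived peptide and 4 μM ATP added. Reaction ran 2 h at room temperature in the dark before quenching with IMAP binding solution.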

full-length BTK C481S enzyme, sequence (Q06187 whole entry C481S): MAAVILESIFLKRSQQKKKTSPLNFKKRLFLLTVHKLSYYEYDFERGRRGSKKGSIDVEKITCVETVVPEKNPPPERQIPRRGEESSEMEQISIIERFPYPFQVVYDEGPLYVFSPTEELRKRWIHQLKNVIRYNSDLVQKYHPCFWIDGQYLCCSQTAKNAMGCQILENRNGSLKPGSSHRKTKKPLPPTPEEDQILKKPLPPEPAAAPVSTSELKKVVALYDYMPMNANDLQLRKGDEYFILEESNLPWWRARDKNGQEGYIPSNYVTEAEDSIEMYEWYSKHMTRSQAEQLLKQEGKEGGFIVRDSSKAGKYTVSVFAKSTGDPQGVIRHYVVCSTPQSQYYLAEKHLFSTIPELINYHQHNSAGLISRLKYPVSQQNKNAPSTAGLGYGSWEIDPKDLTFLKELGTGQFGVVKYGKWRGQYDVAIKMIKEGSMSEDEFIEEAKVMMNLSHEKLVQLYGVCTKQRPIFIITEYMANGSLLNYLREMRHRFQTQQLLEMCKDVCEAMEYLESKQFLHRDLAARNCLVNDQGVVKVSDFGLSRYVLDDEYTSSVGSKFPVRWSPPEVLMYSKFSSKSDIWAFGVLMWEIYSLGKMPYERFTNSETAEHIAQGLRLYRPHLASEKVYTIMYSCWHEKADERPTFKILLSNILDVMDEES
full-length wt-BTK enzyme, sequence (Q06187 whole entry): as the sequence (Q06187 whole entry C481S) above, with S481C counted along it

Compound	IC50 ([1]; B-cell)	IC50 ([2]; 72 h)	IC50 [3]	IC50 [4]	IC50 [1]	IC50 ([2]; 72 hours)	IC50 (REC-1 T474I cell lines; Homo sapiens, Rec1)	IC50 (REC-1 T474I cell lines)
Nc1ncc2n3c(nc(-c4ccc(C(=O)Nc5cc(C(F)(F)F)ccn5)cc4)c13)[C@@H]1CCC[C@H](C1)NC(=O)CCOC/C=C/2 [Example 178]	< 100 nM	< 100 nM	< 5 nM	< 5 nM			100 to 500 nM	
C[C@@H]1CCn2nc(-c3ccc(C(=O)Nc4cc(C(F)(F)F)ccn4)cc3)c3c(N)ncc(c32)/C=C/CN2CC[C@H](C2)C(=O)N1 [Example 148]	< 100 nM	100 to 1000 nM	< 5 nM	< 5 nM			500 to 10000 nM	
C[C@@H]1CCn2nc(-c3ccc(C(=O)Nc4cc(C(F)(F)F)ccn4)cc3)c3c(N)ncc(c32)/C=C/C[C@H](C)OCCC(=O)N1 [Example 73]	< 100 nM	< 100 nM	< 5 nM	< 5 nM			100 to 500 nM	
Nc1ncc2c3c1c(-c1ccc(C(=O)Nc4ccccn4)cc1)nn3[C@@H]1CCC[C@H](C1)C(=O)NCCCCCCC2 [Example 118]	< 100 nM	< 100 nM	< 5 nM	< 5 nM			500 to 10000 nM	
C[C@@H]1CCn2nc(-c3ccc(C(=O)Nc4cc(C(F)(F)F)ccn4)cc3)c3c(N)ncc(c32)/C=C/C[C@@H](C)OCCC(=O)N1 [Example 72]	< 100 nM	< 100 nM	< 5 nM	< 5 nM			500 to 10000 nM	
C[C@@H]1CCn2nc(-c3ccc(C(=O)Nc4cc(C(F)(F)F)ccn4)cc3)c3c(N)ncc(c32)/C=C/CN2CCN[C@H](C2)C(=O)N1 [Example 142]	< 100 nM	100 to 1000 nM	< 5 nM	< 5 nM			500 to 10000 nM	
Nc1ncc2c3c1c(-c1ccc(C(=O)Nc4ccccn4)cc1)nn3[C@@H]1CCC[C@H](C1)NC(=O)CCCC/C=C/2 [Example 23]	< 100 nM	< 100 nM	< 5 nM	< 5 nM			100 to 500 nM	
CC1NC/C=C/c2cnc(N)c3c(-c4ccc(C(=O)Nc5cc(C(F)(F)F)ccn5)cc4)nn(c23)CC[C@@H](C)NC1=O (single isomer, unassigned) [Example 144]			5 to 50 nM	5 to 50 nM	< 100 nM	1000 to 10000 nM		500 to 10000 nM
C[C@@H]1CC(=O)N[C@@H]2CCC[C@H](C2)n2nc(-c3ccc(C(=O)Nc4cc(C(F)(F)F)ccn4)cc3)c3c(N)ncc(c32)/C=C/CN1 [Example 160]	< 100 nM	< 100 nM	< 5 nM	< 5 nM			100 to 500 nM	
C[C@@H]1CCn2nc(-c3cnn(Cc4ccccc4)c3)c3c(N)ncc(c32)/C=C/CCCCCC(=O)N1 [Example 171]	1000 to 10000 nM	1000 to 10000 nM	50 to 500 nM	50 to 500 nM			500 to 10000 nM	
C[C@@H]1CCn2nc(-c3ccc(C(=O)Nc4cc(C(F)(F)F)ccn4)cc3)c3c(N)ncc(c32)/C=C/CN2CC[C@H]2C(=O)N1 [Example 55]	< 100 nM	100 to 1000 nM	< 5 nM	< 5 nM			500 to 10000 nM	
C[C@H]1CC(=O)N[C@@H]2CCC[C@H](C2)n2nc(-c3ccc(C(=O)Nc4cc(C#N)ccn4)cc3)c3c(N)ncc(c32)/C=C/CCO1 [Example 161]	< 100 nM	< 100 nM	< 5 nM	< 5 nM			< 100 nM	
Nc1ncc2c3c1c(-c1ccc(C(=O)Nc4ccccn4)cc1)nn3[C@@H]1CCC[C@H](C1)NC(=O)CCCCC/C=C\C2 [Example 102b]	< 100 nM	100 to 1000 nM	< 5 nM	5 to 50 nM			500 to 10000 nM	

More lines, main results first:

IC50 ([1]; B-cell)	IC50 ([2]; 72 h)	IC50 [3]	IC50 [4]	IC50 [1]	IC50 ([2]; 72 hours)	Compound	IC50 (REC-1 T474I cell lines; Homo sapiens, Rec1)	IC50 (REC-1 T474I cell lines)
< 100 nM	100 to 1000 nM	< 5 nM	< 5 nM			Nc1ncc2c3c1c(-c1ccc(C(=O)Nc4cc(C(F)(F)F)ccn4)cc1)nn3[C@@H]1CCCN(C1)C(=O)CCCCC/C=C/2 [Example 78]	500 to 10000 nM	
100 to 1000 nM	100 to 1000 nM	5 to 50 nM	5 to 50 nM			Nc1ncc2c3c1c(-c1ccc(C(=O)Nc4cc(C(F)(F)F)ccn4)cc1)nn3[C@@H]1CCCN(C1)C(=O)CCCC/C=C/2 [Example 77]	500 to 10000 nM	
< 100 nM	< 100 nM	< 5 nM	< 5 nM			CC(=O)N1CC/C=C/c2cnc(N)c3c(-c4ccc(C(=O)Nc5cc(C(F)(F)F)ccn5)cc4)nn(c23)[C@@H]2CCC[C@H](C2)NC(=O)C1 [Example 35]	100 to 500 nM	
< 100 nM	< 100 nM	< 5 nM	< 5 nM			Nc1ncc2c3c1c(-c1ccc(C(=O)Nc4cc(C(F)(F)F)ccn4)cc1)nn3[C@@H]1CCCN(C1)C(=O)CCCCCCCC/C=C/2 [Example 81]	100 to 500 nM	
< 100 nM	100 to 1000 nM	< 5 nM	< 5 nM			Nc1ncc2c3c1c(-c1ccc(C(=O)Nc4cc(C(F)(F)F)ccn4)cc1)nn3[C@@H]1CCC[C@H](C1)NC(=O)CCCCCC/C=C\C2 [Example 103b]	100 to 500 nM	
< 100 nM	100 to 1000 nM	< 5 nM	< 5 nM			C[C@H]1/C=C/c2cnc(N)c3c(-c4ccc(C(=O)Nc5cc(C(F)(F)F)ccn5)cc4)nn(c23)[C@@H]2CCC[C@H](C2)NC(=O)CCCN1C [Example 43]	500 to 10000 nM	
< 100 nM	100 to 1000 nM	< 5 nM	< 5 nM			Nc1ncc2c3c1c(-c1ccc(C(=O)Nc4cc(C(F)(F)F)ccn4)cc1)nn3[C@@H]1CCC[C@H](C1)NC(=O)CCCCC/C=C\C2 [Example 101b]	500 to 10000 nM	
< 100 nM	< 100 nM	< 5 nM	< 5 nM			Nc1ncc2c3c1c(-c1ccc(C(=O)Nc4cc(C(F)(F)F)ccn4)cc1)nn3[C@@H]1CCC[C@H](C1)NC(=O)CNCC/C=C/2 [Example 32]	100 to 500 nM	
100 to 1000 nM	100 to 1000 nM	5 to 50 nM	5 to 50 nM			Nc1ncc2c3c1c(-c1ccc(C(=O)Nc4cc(C(F)(F)F)ccn4)cc1)nn3[C@@H]1CCC[C@H](C1)C(=O)NCC/C=C/2 [Example 4]	500 to 10000 nM	
< 100 nM	< 100 nM	< 5 nM	< 5 nM			Nc1ncc2c3c1c(-c1ccc(C(=O)Nc4cc(C(F)(F)F)ccn4)cc1)nn3[C@@H]1CCCN(C1)C(=O)CCCCCCC/C=C/2 [Example 80]	< 100 nM	
< 100 nM	100 to 1000 nM	< 5 nM	< 5 nM			Nc1ncc2c3c1c(-c1ccc(C(=O)Nc4cc(C(F)(F)F)ccn4)cc1)nn3[C@@H]1CCC[C@H](C1)NC(=O)CCC[C@@H](O)/C=C/2 [Example 14]	500 to 10000 nM	
